What was measured:
PLA2G16 = target: T1, PLA2G16 (Homo sapiens, UniProt P53816); experiment: Enzyme activity assay for PLA2G16 (Red/Green BODIPY PC-A2 fluorescence); format: biochemical; settings: His-tagged PLA2G16, 4 min pre-incubation, 2 nM to 50 μM; read-out: IC50 values of the compounds determined in the enzyme activity assay for PLA2G16
T1 construct: Hexa-His (N); made in house; host or cells: E. coli BL21(DE3)
T1 sequence (P53816 1-162): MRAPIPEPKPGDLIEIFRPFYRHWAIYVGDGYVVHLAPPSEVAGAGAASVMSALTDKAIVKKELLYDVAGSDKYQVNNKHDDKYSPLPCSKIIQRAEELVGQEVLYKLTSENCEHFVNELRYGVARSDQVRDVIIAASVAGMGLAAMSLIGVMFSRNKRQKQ
Procedure, shortened: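 N-His-tagged human PLA2G16 from E. coli, Ni-NTA purified. Pre-incubated 4 min with compound (2 nM–50 μM final) in pH 8.5 Tris/NaCl buffer with 5 mM glutathione, then BODIPY PC-A2 in DOPC/DOPG/cholesterol vesicles added. Fluorescence (ex 480/em 530 nm) increase over 10 min taken as activity; IC50 by non-linear regression.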

[1] = test system: picornaviruses (CVB1, HRV-A2, HRV-A23, EV-68); experiment: Anti-picornavirus cytopathic effect (CPE) reduction assay on HeLa H1 cells; format: cell-based; settings: Enterovirus B, HeLa H1, 48 h, HeLa H1 cells, 48 h, category from averaging the EC50 values from four picornaviruses (CVB1, HRV-A2, HRV-A23, EV68); read-out: EC50 values of the compounds determined in the anti-picornavirus assay
Procedure, shortened: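 HeLa H1 cells pre-treated 2 h with serially diluted compound in DMEM/2% FBS, then infected at an MOI giving full CPE in 2 days. After 48 h at 37° C, viability read by CellTiterBlue fluorescence (ex 560/em 590 nm), normalised to infected and uninfected vehicle controls; EC50 by non-linear regression, category from mean of four viruses.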

With `O=C(NC1CC1)C(=O)C1CCC(=O)N1Cc1ccc(F)cc1` (centres unmarked) [FP 242, N-Cyclopropyl-2-{1-[(4-fluorophenyl)methyl]-5-oxopyrrolidin-2-yl}-2-oxoacetamide] the IC50 (PLA2G16) was < 1000 nM and the EC50 [1] was 1000 to 10000 nM.

With `CC(C(=O)C(=O)NC1CC1)N(C=O)Cc1ccccc1` (centres unmarked) [FP 44, 3-(N-Benzylformamido)-N-cyclopropyl-2-oxobutanamide] the IC50 (PLA2G16) was < 1000 nM and the EC50 [1] was 1000 to 10000 nM.

`CCNC(=O)C(=O)[C@H]1CCC(=O)N1Cc1ccc(Cl)cc1` [FP 285, 2-[(2R)-1-[(4-Chlorophenyl)methyl]-5-oxopyrrolidin-2-yl]-N-ethyl-2-oxoacetamide] was tested, and the IC50 (PLA2G16) was < 1000 nM and the EC50 [1] was < 1000 nM.

For `COc1ccccc1N(C=O)C(C)C(=O)C(=O)NCc1cccnc1` (centres unmarked) [FP 89, 3-[N-(2-Methoxyphenyl)formamido]-2-oxo-A[(pyridin-3-yl)methyl]butanamide], the IC50 (PLA2G16) was < 1000 nM and the EC50 [1] was > 10000 nM.

`CC(C)C(=O)N(C)C(C)C(=O)C(=O)NCC1CCCCC1` (centres unmarked) [FP 144, N-(Cyclohexylmethyl)-3-(N,2-dimethylpropanamido)-2-oxobutanamide] was tested, and the IC50 (PLA2G16) was < 1000 nM and the EC50 [1] was 1000 to 10000 nM.

With `COc1cc(F)ccc1N(C=O)C(C)C(=O)C(=O)NCc1cccc(Cl)c1` (centres unmarked) [FP 8, N-[(3-Chlorophenyl)methyl]-3-[N-(4-fluoro-2-methoxyphenyl)formamido]-2-oxobutanamide] the IC50 (PLA2G16) was < 1000 nM and the EC50 [1] was < 1000 nM.

`O=CN(CC(=O)C(=O)NCC1CC1)Cc1ccccc1` [FP 193, 3-(N-Benzylformamido)-N-(cyclopropylmethyl)-2-oxopropanamide] was tested, and the IC50 (PLA2G16) was < 1000 nM and the EC50 [1] was < 1000 nM.

In the case of `CCC(C(=O)C(=O)NCc1cccc(Cl)c1)N(C=O)c1ccccc1OC` (centres unmarked) [FP 12, N-[(3-Chlorophenyl)methyl]-3-[N-(2-methoxyphenyl)formamido]-2-oxopentanamide], the IC50 (PLA2G16) is reported as < 1000 nM and the EC50 [1] is reported as 1000 to 10000 nM.

With `CC(C(=O)C(=O)NCC1CCCCC1)N(C=O)CC1CC1` (centres unmarked) [FP 51, N-(Cyclohexylmethyl)-3-[N-(cyclopropylmethyl)formamido]-2-oxobutanamide] the IC50 (PLA2G16) was < 1000 nM and the EC50 [1] was 1000 to 10000 nM.

In the case of `COc1ccc(CNC(=O)C(=O)C(C)N(C=O)c2ccccc2OC)cc1` (centres unmarked) [FP 92, 3-[N-(2-Methoxyphenyl)formamido]-N-[(4-methoxyphenyl)methyl]-2-oxobutanamide], the IC50 (PLA2G16) is reported as < 1000 nM and the EC50 [1] is reported as 1000 to 10000 nM.

`CC(C(=O)C(=O)NCC1CCCCC1)N(C=O)C1CCCCC1` (centres unmarked) [FP 52, 3-(N-Cyclohexylformamido)-N-(cyclohexylmethyl)-2-oxobutanamide] was tested, and the IC50 (PLA2G16) was < 1000 nM and the EC50 [1] was < 1000 nM.

With `CC(NC(=O)c1cccc(Cl)c1)C(=O)C(=O)NCC1CC1` (centres unmarked) [FP 172, 3-[(3-Chlorophenyl)formamido]-N-(cyclopropylmethyl)-2-oxobutanamide] the IC50 (PLA2G16) was < 1000 nM and the EC50 [1] was 1000 to 10000 nM.

In the case of `COc1ccccc1N(C=O)C(C)C(=O)C(=O)NCC(C)C` (centres unmarked) [FP 100, 3-[N-(2-Methoxyphenyl)formamido]-N-(2-methylpropyl)-2-oxobutanamide], the IC50 (PLA2G16) is reported as < 1000 nM and the EC50 [1] is reported as 1000 to 10000 nM.

For `COc1ccccc1N(C=O)C(C)C(=O)C(=O)NCc1cnccn1` (centres unmarked) [FP 104, 3-[N-(2-Methoxyphenyl)formamido]-2-oxo-N-[(pyrazin-2-yl)methyl]butanamide], the IC50 (PLA2G16) was 1000 to 10000 nM and the EC50 [1] was > 10000 nM.

In the case of `CC(OC1CCCCC1)C(=O)C(=O)NCC1CC1` (centres unmarked) [FP 120, 3-(Cyclohexyloxy)-N-(cyclopropylmethyl)-2-oxobutanamide], the IC50 (PLA2G16) is reported as < 1000 nM and the EC50 [1] is reported as < 1000 nM.

`CC(C(=O)C(=O)NCC1CCCCC1)N(C=O)CC1CCOCC1` (centres unmarked) [FP 49, N-(Cyclohexylmethyl)-3-{N-[(oxan-4-yl)methyl]formamido}-2-oxobutanamide] was tested, and the IC50 (PLA2G16) was < 1000 nM and the EC50 [1] was < 1000 nM.

In the case of `CC(C(=O)C(=O)NCC1CCCCC1)N(C=O)c1cc[nH]c(=O)c1` (centres unmarked) [FP 192, N-(Cyclohexylmethyl)-2-oxo-3-[N-(2-oxo-1,2-dihydropyridin-4-yl)formamido]butanamide], the IC50 (PLA2G16) is reported as < 1000 nM and the EC50 [1] is reported as > 10000 nM.

With `CC(C(=O)C(=O)NCc1cccc(Cl)c1)N(C=O)CC(C)(C)C` (centres unmarked) [FP 23, N-[(3-Chlorophenyl)methyl]-3-[N-(2,2-dimethylpropyl)formamido]-2-oxobutanamide] the IC50 (PLA2G16) was < 1000 nM and the EC50 [1] was < 1000 nM.

For `CC(C(=O)C(=O)NCC1CCCCC1)N(C(=O)CNS(C)(=O)=O)C1CCCCC1` (centres unmarked) [FP 162, 3-(N-Cyclohexyl-2-methanesulfonamidoacetamido)-N-(cyclohexylmethyl)-2-oxobutanamide], the IC50 (PLA2G16) was 10000 to 50000 nM and the EC50 [1] was > 10000 nM.

With `CC(C(=O)C(=O)NCC1CC1)N(C=O)CC1CCN(C(=O)OC(C)(C)C)CC1` (centres unmarked) [FP 39, tert-Butyl 4-[(N-{1-[(cyclopropylmethyl)carbamoyl]-1-oxopropan-2-yl}formamido)methyl]piperidine-1-carboxylate] the IC50 (PLA2G16) was 1000 to 10000 nM and the EC50 [1] was > 10000 nM.

`O=C(NCC(F)F)C(=O)[C@H]1CCC(=O)N1Cc1ccccc1` [FP 266, 2-[(2R)-1-Benzyl-5-oxopyrrolidin-2-yl]-N-(2,2-difluoroethyl)-2-oxoacetamide] was tested, and the IC50 (PLA2G16) was < 1000 nM and the EC50 [1] was < 1000 nM.

For `CC(NC(=O)C1CCN(CC(F)(F)F)CC1)C(=O)C(=O)NCC1CCCCC1` (centres unmarked) [FP 206, N-(Cyclohexylmethyl)-2-oxo-3-{[1-(2,2,2-trifluoroethyl)piperidin-4-yl]formamido}-butanamide], the IC50 (PLA2G16) was < 1000 nM and the EC50 [1] was 1000 to 10000 nM.

With `CC(C)C(C(=O)C(=O)NCC1CC1)N(C=O)CC1CCOCC1` (centres unmarked) [FP 34, N-(Cyclopropylmethyl)-4-methyl-3-{N-[(oxan-4-yl)methyl]formamido}-2-oxopentanamide] the IC50 (PLA2G16) was < 1000 nM and the EC50 [1] was 1000 to 10000 nM.

For `C[C@@H]1CC(=O)N(Cc2ccccc2)[C@@H]1C(=O)C(=O)NCC1CC1` (single isomer, unassigned) [FP 335], the IC50 (PLA2G16) was < 1000 nM and the EC50 [1] was 1000 to 10000 nM.

For `CC(C(=O)C(=O)NCC1CC1)N(C=O)CC1CCCCC1` (centres unmarked) [FP 38, 3-[N-(Cyclohexylmethyl)formamido]-N-(cyclopropylmethyl)-2-oxobutanamide], the IC50 (PLA2G16) was < 1000 nM and the EC50 [1] was < 1000 nM.

With `CC(C(=O)C(=O)NCC1CC1)N(C=O)CC1CCN(C(=O)C2CCCCC2)CC1` (centres unmarked) [FP 81, 3-{N-[(1-Cyclohexanecarbonylpiperidin-4-yl)methyl]formamido}-N-(cyclopropylmethyl)-2-oxobutanamide] the IC50 (PLA2G16) was 1000 to 10000 nM and the EC50 [1] was > 10000 nM.

In the case of `CCC1CC(=O)N(Cc2ccccc2)C1C(=O)C(=O)NC1CC1` (centres unmarked) [FP 343, 2-(1-Benzyl-3-ethyl-5-oxopyrrolidin-2-yl)-N-cyclopropyl-2-oxoacetamide], the IC50 (PLA2G16) is reported as < 1000 nM and the EC50 [1] is reported as < 1000 nM.

For `CC(C(=O)C(=O)NCc1cccc(Cl)c1)N(C)C=O` (centres unmarked) [FP 69, N-[(3-Chlorophenyl)methyl]-3-(N-methylformamido)-2-oxobutanamide], the IC50 (PLA2G16) was 1000 to 10000 nM and the EC50 [1] was > 10000 nM.

For `CC(NC(=O)C1CCCCC1)C(=O)C(=O)NCC1CC1` (centres unmarked) [FP 161, 3-(Cyclohexylformamido)-N-(cyclopropylmethyl)-2-oxobutanamide], the IC50 (PLA2G16) was < 1000 nM and the EC50 [1] was > 10000 nM.

For `CC(NS(=O)(=O)c1ccccc1)C(=O)C(=O)NCC1CCCCC1` (centres unmarked) [FP 218, 3-Benzenesulfonamido-N-(cyclohexylmethyl)-2-oxobutanamide], the IC50 (PLA2G16) was < 1000 nM and the EC50 [1] was 1000 to 10000 nM.

For `O=C(NCC1CCCC1)C(=O)C1CCC(=O)N1CC1CC1` (centres unmarked) [FP 255, N-(Cyclopentylmethyl)-2-[1-(cyclopropylmethyl)-5-oxopyrrolidin-2-yl]-2-oxoacetamide], the IC50 (PLA2G16) was < 1000 nM and the EC50 [1] was 1000 to 10000 nM.

Source: patent US11091428B2 (HAPLOGEN GMBH, priority 2016, dated 2021)
